Reference: PubChem BioAssay AID248 (DTP/NCI, 2004)
Values joined by “and” are separate entries in the source; they are usually repeats but may differ in a detail not shown here. Equal entries are not always repeated. Inconclusive results and toxic doses are left out. Cut-off read from the data, not from the text of the source: active = T/C of 150% or more; inactive = T/C below 125%.

System: L1210 leukemia ip in BDF1 mice, survival T/C
Assay: NCI In Vivo Anticancer Drug Screen. Data for tumor model L1210 Leukemia (intraperitoneal) in B6D2F1 (BDF1) mice
Conditions: endpoint: mean survival time, higher = longer survival
In short: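 Value reflects the ratio of survival in compound-treated mice to survival in vehicle-treated controls, with both groups carrying the same transplanted tumor.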

[1] = dose: 100.0 mg/kg/injection, schedule: Q04DX003 (ip), vehicle: Klucel (hydroxypropylcellulose) (HPC)
[2] = dose: 200.0 mg/kg/injection, schedule: Q04DX003 (ip), vehicle: Klucel (hydroxypropylcellulose) (HPC)
[3] = dose: 400.0 mg/kg/injection, schedule: Q04DX003 (ip), vehicle: Klucel (hydroxypropylcellulose) (HPC)
[4] = dose: 400.0 mg/kg/injection, schedule: Q04DX002 (ip), vehicle: saline with Tween-80
[5] = dose: 100.0 mg/kg/injection, schedule: Q01DX001 (ip), vehicle: carboxymethylcellulose (CMC)
[6] = dose: 200.0 mg/kg/injection, schedule: Q01DX001 (ip), vehicle: carboxymethylcellulose (CMC)
[7] = dose: 100.0 mg/kg/injection, schedule: Q04DX003 (ip), vehicle: other
[8] = dose: 200.0 mg/kg/injection, schedule: Q04DX003 (ip), vehicle: other
[9] = dose: 400.0 mg/kg/injection, schedule: Q04DX003 (ip), vehicle: other
[10] = dose: 100.0 mg/kg/injection, schedule: Q01DX001 (ip), vehicle: other
[11] = dose: 200.0 mg/kg/injection, schedule: Q01DX001 (ip), vehicle: other
[12] = dose: 400.0 mg/kg/injection, schedule: Q01DX001 (ip), vehicle: other

Measured: T/C

Cc1ccc(Cl)c([N+](=O)[O-])c1N
inactive: dose: 100.0 mg/kg/injection, schedule: Q01DX009 (ip), vehicle: saline with Tween-80 92 % of control | dose: 100.0 mg/kg/injection, schedule: Q04DX003 (ip), vehicle: saline with Tween-80 106 % of control | dose: 200.0 mg/kg/injection, schedule: Q01DX009 (ip), vehicle: saline with Tween-80 95 % of control | dose: 200.0 mg/kg/injection, schedule: Q04DX003 (ip), vehicle: saline with Tween-80 104 % of control | dose: 400.0 mg/kg/injection, schedule: Q01DX009 (ip), vehicle: saline with Tween-80 108 % of control | dose: 400.0 mg/kg/injection, schedule: Q04DX003 (ip), vehicle: saline with Tween-80 104 % of control

C[Si](C)Cc1cccc(F)c1
inactive: [1] 105 % of control | [2] 105 % of control | [3] 100 % of control

O=C(Oc1ccc(Cl)cc1)c1ccc(Cl)cc1
inactive: dose: 50.0 mg/kg/injection, schedule: Q01DX009 (ip), vehicle: Klucel (hydroxypropylcellulose) (HPC) 101 % of control | dose: 100.0 mg/kg/injection, schedule: Q01DX009 (ip), vehicle: Klucel (hydroxypropylcellulose) (HPC) 94 % of control | [1] 101 % of control | dose: 200.0 mg/kg/injection, schedule: Q01DX009 (ip), vehicle: Klucel (hydroxypropylcellulose) (HPC) 95 % of control | [2] 99 % of control | [3] 92 % of control

CCN(CC)CCCOC(=O)C(c1ccccc1)C1CCCCC1 (configuration not stated)
inactive: dose: 6.25 mg/kg/injection, schedule: Q01DX009 (ip), vehicle: saline 97 % of control | dose: 6.25 mg/kg/injection, schedule: Q04DX003 (ip), vehicle: saline 100 % of control | dose: 12.5 mg/kg/injection, schedule: Q01DX009 (ip), vehicle: saline 94 % of control | dose: 12.5 mg/kg/injection, schedule: Q04DX003 (ip), vehicle: saline 102 % of control | dose: 25.0 mg/kg/injection, schedule: Q01DX009 (ip), vehicle: saline 94 % of control | dose: 25.0 mg/kg/injection, schedule: Q04DX003 (ip), vehicle: saline 102 % of control

c1ccc(P(c2ccccc2)N2CCN(P(c3ccccc3)c3ccccc3)CC2)cc1
inactive: dose: 100.0 mg/kg/injection, schedule: Q04DX002 (ip), vehicle: saline with Tween-80 96 % of control | dose: 200.0 mg/kg/injection, schedule: Q04DX002 (ip), vehicle: saline with Tween-80 93 % of control | [4] 104 % of control

O=C(O)c1cc(S(=O)(=O)Cl)ccc1Cl
inactive: dose: 50.0 mg/kg/injection, schedule: Q04DX003 (ip), vehicle: Klucel (hydroxypropylcellulose) (HPC) 105 % of control | [5] 95 % of control | [1] 92 % of control | [6] 104 % of control

O=CC(O)C(O)C(O)CO (configuration not stated) (tested in a mixture with another compound)
inactive: dose: 100.0 mg/kg/injection, schedule: Q01DX001 (ip), vehicle: Klucel (hydroxypropylcellulose) (HPC) 94 % of control | dose: 200.0 mg/kg/injection, schedule: Q01DX001 (ip), vehicle: Klucel (hydroxypropylcellulose) (HPC) 88 % of control | dose: 400.0 mg/kg/injection, schedule: Q01DX001 (ip), vehicle: Klucel (hydroxypropylcellulose) (HPC) 88 % of control

CCC1(C)CC1(Cl)Cl (configuration not stated)
inactive: [7] 105 % of control | [8] 102 % of control | [9] 100 % of control

O=C(O)CCCCCCCCCCNC(=O)Nc1cccc(C(F)(F)F)c1
inactive: dose: 100.0 mg/kg/injection, schedule: Q01DX001 (ip), vehicle: gum acacia 92 % of control and 96 % of control | dose: 100.0 mg/kg/injection, schedule: Q01DX009 (ip), vehicle: gum acacia 92 % of control | dose: 100.0 mg/kg/injection, schedule: Q04DX002 (ip), vehicle: gum acacia 93 % of control and 88 % of control | dose: 100.0 mg/kg/injection, schedule: Q04DX003 (ip), vehicle: gum acacia 93 % of control and 89 % of control and 90 % of control | dose: 200.0 mg/kg/injection, schedule: Q01DX001 (ip), vehicle: gum acacia 94 % of control and 89 % of control | dose: 200.0 mg/kg/injection, schedule: Q01DX009 (ip), vehicle: gum acacia 93 % of control | dose: 200.0 mg/kg/injection, schedule: Q04DX002 (ip), vehicle: gum acacia 92 % of control and 89 % of control | dose: 200.0 mg/kg/injection, schedule: Q04DX003 (ip), vehicle: gum acacia 93 % of control and 97 % of control and 88 % of control | dose: 400.0 mg/kg/injection, schedule: Q01DX001 (ip), vehicle: gum acacia 92 % of control and 96 % of control | dose: 400.0 mg/kg/injection, schedule: Q01DX009 (ip), vehicle: gum acacia 93 % of control | dose: 400.0 mg/kg/injection, schedule: Q04DX002 (ip), vehicle: gum acacia 86 % of control and 90 % of control | dose: 400.0 mg/kg/injection, schedule: Q04DX003 (ip), vehicle: gum acacia 94 % of control and 88 % of control

NC(=O)n1ccc(CC(O)(C(F)(F)F)C(F)(F)F)n1
inactive: dose: 100.0 mg/kg/injection, schedule: Q01DX001 (ip), vehicle: saline with Tween-80 96 % of control | dose: 200.0 mg/kg/injection, schedule: Q01DX001 (ip), vehicle: saline with Tween-80 96 % of control | dose: 400.0 mg/kg/injection, schedule: Q01DX001 (ip), vehicle: saline with Tween-80 96 % of control

CCC(CO)N=Cc1ccccc1O.CCC(CO)N=Cc1ccccc1O.[Ni] (configuration not stated)
inactive: dose: 9.5 mg/kg/injection, schedule: Q01DX001 (ip), vehicle: other 102 % of control | dose: 19.0 mg/kg/injection, schedule: Q01DX001 (ip), vehicle: other 102 % of control | dose: 38.0 mg/kg/injection, schedule: Q01DX001 (ip), vehicle: other 94 % of control | dose: 75.0 mg/kg/injection, schedule: Q01DX001 (ip), vehicle: other 111 % of control

CC1(C)CC(=O)C2=C(C1)Nc1ccccc1CC2c1c[nH]c2ccccc12 (configuration not stated)
inactive: [10] 94 % of control | [11] 103 % of control | [12] 103 % of control

NC(=O)c1ccc[n+](CCCl)c1
inactive: dose: 62.5 mg/kg/injection, schedule: Q01DX010 (ip), vehicle: saline 94 % of control | dose: 125.0 mg/kg/injection, schedule: Q01DX010 (ip), vehicle: saline 93 % of control

Brc1ccc(N2N=C(c3ccccc3)N(c3ccc(Br)cc3)N=C2c2ccccc2)cc1
inactive: [10] 90 % of control | [7] 104 % of control | [11] 93 % of control | [8] 89 % of control | [12] 95 % of control | [9] 89 % of control

O=C(N/N=C/c1ccccc1)c1ccc(Cl)cc1
inactive: [1] 97 % of control | [2] 100 % of control | [3] 90 % of control

c1ccc(C(c2ccccc2)(c2ccccc2)c2ccc(Nc3ccc(C(c4ccccc4)(c4ccccc4)c4ccccc4)cc3)cc2)cc1
inactive: dose: 25.6 mg/kg/injection, schedule: Q04DX002 (ip), vehicle: saline with Tween-80 87 % of control | dose: 64.0 mg/kg/injection, schedule: Q04DX002 (ip), vehicle: saline with Tween-80 91 % of control | dose: 160.0 mg/kg/injection, schedule: Q04DX002 (ip), vehicle: saline with Tween-80 97 % of control | [4] 97 % of control

CC1(C)OC(COS(C)(=O)=O)C2OC(C)(C)OC(COS(C)(=O)=O)C2O1 (configuration not stated)
inactive: [5] 104 % of control | [6] 101 % of control | dose: 400.0 mg/kg/injection, schedule: Q01DX001 (ip), vehicle: carboxymethylcellulose (CMC) 104 % of control

Cc1cc(C)c(-c2c(C)cc(C)cc2[N+](=O)[O-])c([N+](=O)[O-])c1
inactive: dose: 100.0 mg/kg/injection, schedule: Q04DX003 (ip), vehicle: saline 93 % of control | dose: 200.0 mg/kg/injection, schedule: Q04DX003 (ip), vehicle: saline 96 % of control | dose: 400.0 mg/kg/injection, schedule: Q04DX003 (ip), vehicle: saline 86 % of control
